Tests used:
Conditions in all cases: main component drawn
B. subtilis 168 [1] = test: fitness (endpoint OD595 vs no drug) (fraction); higher = more growth
Method in brief: (§1)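 Each well of a 384-well plate received 30 µl of culture at OD595 0.01, or 55 µl for S. pneumoniae. TSB, LB Lennox or CY served as media at 37 °C. OD595 was taken every 30 min for 14 h and corrected by subtracting the first reading. Fitness is the optical density at stationary-phase entry divided by the robust mean of no-drug controls, capped at 1.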

S. aureus Newman [2] = test: as above
Method in brief: as §1

S. pneumoniae D39V [3] = test: as above
Method in brief: as §1

B. subtilis 168 [4] = test: Bliss interaction score (quartile over a dose matrix) (fitness difference); higher = more antagonism (negative = synergy)
Method in brief: (§2)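 The Bliss score is observed fitness minus expected fitness, where the expected value is the product of single-drug fitness values inferred from combination data. Fitness is OD595 at entry into stationary phase normalised to the plate's robust no-drug mean and capped at 1. Scores are reported as quartiles spanning technical, biological and donor/recipient replicates.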

S. aureus DSM 20231 = test: as above
Method in brief: as §2

S. aureus Newman [5] = test: as above
Method in brief: as §2

S. pneumoniae D39V [6] = test: as above
Method in brief: as §2

[7] = first compound 0.125 µg/mL, partner 8 µg/mL
[8] = first compound 0.25 µg/mL, partner 2 µg/mL
[9] = first compound 0.25 µg/mL, partner 4 µg/mL
[10] = first compound 0.25 µg/mL, partner 8 µg/mL
[11] = first compound 2 µg/mL, partner 2 µg/mL
[12] = first compound 2 µg/mL, partner 4 µg/mL
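Wherever Bliss interaction score (quartile over a dose matrix) is given: first quartile when negative (synergy) and third quartile when positive (antagonism).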

CNC(C)C1CCC(N)C(OC2C(N)CC(N)C(OC3OCC(C)(O)C(NC)C3O)C2O)O1 (stereo not given) [Gentamicin] + CN[C@@H]1[C@H](O[C@H]2[C@H](O[C@H]3[C@H](O)[C@@H](O)[C@H](N=C(N)N)[C@@H](O)[C@@H]3N=C(N)N)O[C@@H](C)[C@]2(O)C=O)O[C@@H](CO)[C@H](O)[C@H]1O [Streptomycin]
fitness (B. subtilis 168 [1]; [7]): 0.0351
fitness (B. subtilis 168 [1]; [8]): 0.0785
fitness (B. subtilis 168 [1]; [9]): 0.05
fitness (B. subtilis 168 [1]; [10]): 0.0399
fitness (S. aureus Newman [2]; first compound 0.375 µg/mL, partner 1 µg/mL): ≥ 1
fitness (S. aureus Newman [2]; first compound 0.375 µg/mL, partner 2 µg/mL): 0.929
fitness (S. aureus Newman [2]; first compound 0.5 µg/mL, partner 1 µg/mL): 0.957
fitness (S. aureus Newman [2]; first compound 0.5 µg/mL, partner 2 µg/mL): 0.953
fitness (S. aureus Newman [2]; first compound 0.5 µg/mL, partner 4 µg/mL): 0.978
fitness (S. aureus Newman [2]; first compound 0.75 µg/mL, partner 1 µg/mL): 0.99
fitness (S. aureus Newman [2]; first compound 0.75 µg/mL, partner 2 µg/mL): 0.848
fitness (S. aureus Newman [2]; first compound 1 µg/mL, partner 1 µg/mL): 0.991
fitness (S. aureus Newman [2]; first compound 1 µg/mL, partner 2 µg/mL): ≥ 1
fitness (S. aureus Newman [2]; first compound 1 µg/mL, partner 4 µg/mL): ≥ 1
fitness (S. aureus Newman [2]; first compound 2 µg/mL, partner 1 µg/mL): 0.996
fitness (S. aureus Newman [2]; [11]): ≥ 1
fitness (S. aureus Newman [2]; [12]): 0.946
fitness (S. pneumoniae D39V [3]; [11]): 0.918
fitness (S. pneumoniae D39V [3]; [12]): 0.922
fitness (S. pneumoniae D39V [3]; first compound 2 µg/mL, partner 8 µg/mL): 0.899
fitness (S. pneumoniae D39V [3]; first compound 2 µg/mL, partner 16 µg/mL, one replicate): 0.779
fitness (S. pneumoniae D39V [3]; first compound 4 µg/mL, partner 2 µg/mL): 0.895
fitness (S. pneumoniae D39V [3]; first compound 4 µg/mL, partner 4 µg/mL): 0.942
fitness (S. pneumoniae D39V [3]; first compound 4 µg/mL, partner 8 µg/mL): 0.848
fitness (S. pneumoniae D39V [3]; first compound 4 µg/mL, partner 16 µg/mL, one replicate): 0.736
fitness (S. pneumoniae D39V [3]; first compound 8 µg/mL, partner 2 µg/mL): 0.912
fitness (S. pneumoniae D39V [3]; first compound 8 µg/mL, partner 4 µg/mL): 0.912
fitness (S. pneumoniae D39V [3]; first compound 8 µg/mL, partner 8 µg/mL): 0.836
fitness (S. pneumoniae D39V [3]; first compound 8 µg/mL, partner 16 µg/mL, one replicate): 0.628
Bliss interaction score (B. subtilis 168 [4]): -0.17
Bliss interaction score (S. aureus DSM 20231): -0.404
Bliss interaction score (S. aureus Newman [5]): 0.0694
Bliss interaction score (S. pneumoniae D39V [6]): 0.0468

CNC(C)C1CCC(N)C(OC2C(N)CC(N)C(OC3OCC(C)(O)C(NC)C3O)C2O)O1 (stereo not given) [Gentamicin] + COc1c(N2C[C@@H]3CCCN[C@@H]3C2)c(F)cc2c(=O)c(C(=O)O)cn(C3CC3)c12 [Moxifloxacin]
fitness (B. subtilis 168 [1]; first compound 0.0625 µg/mL, partner 0.0625 µg/mL): 0.0368
fitness (B. subtilis 168 [1]; first compound 0.0625 µg/mL, partner 0.125 µg/mL): 0.048
fitness (B. subtilis 168 [1]; first compound 0.0625 µg/mL, partner 2 µg/mL): 0.0515
fitness (B. subtilis 168 [1]; first compound 0.0625 µg/mL, partner 4 µg/mL): 0.0389
fitness (B. subtilis 168 [1]; first compound 0.0625 µg/mL, partner 8 µg/mL): 0.0196
fitness (B. subtilis 168 [1]; first compound 0.125 µg/mL, partner 0.0625 µg/mL): 0.0582
fitness (B. subtilis 168 [1]; first compound 0.125 µg/mL, partner 0.125 µg/mL): 0.0573
fitness (B. subtilis 168 [1]; first compound 0.125 µg/mL, partner 2 µg/mL): 0.0401
fitness (B. subtilis 168 [1]; first compound 0.125 µg/mL, partner 4 µg/mL): 0.0418
fitness (B. subtilis 168 [1]; [7]): 0.0222
fitness (B. subtilis 168 [1]; first compound 0.25 µg/mL, partner 0.0312 µg/mL): 0.0645
fitness (B. subtilis 168 [1]; first compound 0.25 µg/mL, partner 0.0625 µg/mL): 0.069
fitness (B. subtilis 168 [1]; first compound 0.25 µg/mL, partner 0.125 µg/mL): 0.069
fitness (B. subtilis 168 [1]; [8]): 0.0498
fitness (B. subtilis 168 [1]; [9]): 0.0517
fitness (B. subtilis 168 [1]; [10]): 0.0301
fitness (S. aureus Newman [2]; first compound 0.375 µg/mL, partner 0.0075 µg/mL): 0.733
fitness (S. aureus Newman [2]; first compound 0.375 µg/mL, partner 0.015 µg/mL): 0.515
fitness (S. aureus Newman [2]; first compound 0.375 µg/mL, partner 0.03 µg/mL): 0.153
fitness (S. aureus Newman [2]; first compound 0.5 µg/mL, partner 0.0075 µg/mL): 0.801
fitness (S. aureus Newman [2]; first compound 0.5 µg/mL, partner 0.015 µg/mL): 0.74
fitness (S. aureus Newman [2]; first compound 0.75 µg/mL, partner 0.0075 µg/mL): 0.722
fitness (S. aureus Newman [2]; first compound 0.75 µg/mL, partner 0.015 µg/mL): 0.544
fitness (S. aureus Newman [2]; first compound 0.75 µg/mL, partner 0.03 µg/mL): 0.189
fitness (S. aureus Newman [2]; first compound 1 µg/mL, partner 0.0075 µg/mL): 0.841
fitness (S. aureus Newman [2]; first compound 1 µg/mL, partner 0.015 µg/mL): 0.776
fitness (S. aureus Newman [2]; first compound 1.5 µg/mL, partner 0.015 µg/mL): 0.195
fitness (S. aureus Newman [2]; first compound 1.5 µg/mL, partner 0.03 µg/mL): 0.0456
fitness (S. aureus Newman [2]; first compound 2 µg/mL, partner 0.0075 µg/mL): 0.879
fitness (S. aureus Newman [2]; first compound 2 µg/mL, partner 0.015 µg/mL): 0.777
fitness (S. pneumoniae D39V [3]; first compound 2 µg/mL, partner 0.005 µg/mL): ≥ 1
fitness (S. pneumoniae D39V [3]; first compound 2 µg/mL, partner 0.01 µg/mL): 0.987
fitness (S. pneumoniae D39V [3]; first compound 2 µg/mL, partner 0.02 µg/mL): 0.949
fitness (S. pneumoniae D39V [3]; first compound 2 µg/mL, partner 0.0312 µg/mL): 0.0909
fitness (S. pneumoniae D39V [3]; first compound 2 µg/mL, partner 0.0625 µg/mL): 0.0352
fitness (S. pneumoniae D39V [3]; first compound 2 µg/mL, partner 0.125 µg/mL): 0.0208
fitness (S. pneumoniae D39V [3]; first compound 4 µg/mL, partner 0.005 µg/mL): 0.999
fitness (S. pneumoniae D39V [3]; first compound 4 µg/mL, partner 0.01 µg/mL): 0.998
fitness (S. pneumoniae D39V [3]; first compound 4 µg/mL, partner 0.02 µg/mL): 0.987
fitness (S. pneumoniae D39V [3]; first compound 4 µg/mL, partner 0.0312 µg/mL): 0.062
fitness (S. pneumoniae D39V [3]; first compound 4 µg/mL, partner 0.0625 µg/mL): 0.0383
fitness (S. pneumoniae D39V [3]; first compound 4 µg/mL, partner 0.125 µg/mL): 0.0445
fitness (S. pneumoniae D39V [3]; first compound 8 µg/mL, partner 0.005 µg/mL): 0.972
fitness (S. pneumoniae D39V [3]; first compound 8 µg/mL, partner 0.01 µg/mL): 0.972
fitness (S. pneumoniae D39V [3]; first compound 8 µg/mL, partner 0.02 µg/mL): 0.925
fitness (S. pneumoniae D39V [3]; first compound 8 µg/mL, partner 0.0312 µg/mL): 0.0628
fitness (S. pneumoniae D39V [3]; first compound 8 µg/mL, partner 0.0625 µg/mL): 0.0435
fitness (S. pneumoniae D39V [3]; first compound 8 µg/mL, partner 0.125 µg/mL): 0.0398
Bliss interaction score (B. subtilis 168 [4]): 0.0561
Bliss interaction score (S. aureus DSM 20231): 0.0845
Bliss interaction score (S. aureus Newman [5]): 0.0666
Bliss interaction score (S. pneumoniae D39V [6]): -0.0566

— the supplement of paper PMC10627819
